Results on eleven molecules are retold here after patent publication US10150760B2, “Compounds for use in preparing heterocyclic triazole agonists of the APJ receptor” (AMGEN INC., priority 2016, dated 2018).

Molecules are shown by their SMILES.

In one test the target is human APJ receptor (Homo sapiens (Human), UniProt P35414). Nature of the test: [35S]GTPγS binding assay on membranes from CHO cells stably expressing human APJ receptor. Format: biochemical. The settings on record: read-out: Activity hAPJ SPA EC50 IP. Put shortly:
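Membranes from CHO cells stably expressing human APJ incubated with ligand, 0.2 nM [35S]GTPγS and WGA SPA beads in HEPES pH 7.5 with 5 mM MgCl2, 200 mM NaCl, 3 μM GDP, 90 min at RT. Nonspecific binding defined with 100 μM GTPγS; EC50 by non-linear regression.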
On the technique in general: Binding of GTPγS marks nucleotide exchange on a G protein.

Test [1] has as its system isolated perfused rat hearts. Nature of the test: Ex vivo isolated perfused rat heart assay (Langendorff apparatus), load independent inotropic and lusitropic effects. Details: species or system Sprague Dawley rat. The following applies: ex vivo isolated perfused rat heart, percent change over vehicle; for Isolated Heart Assay dP/dtmax (%): contractility; for Isolated Heart Assay dP/dtmin (%): relaxation. The text has this:
Evidence for Load Independent Inotropic Effects with APJ Agonists Using Ex Vivo Assay (Isolated Perfused Rat Hearts)
Naive Sprague Dawley® SD rats (Harlan laboratories (Livermore, Calif. USA)) were anaesthetized and hearts were excised followed by cannulation in the Langendorff apparatus (Harvard apparatus, Holliston, Mass. USA) via aorta. The heart was perfused retrograde with modified oxygenated Krebs-Henseleit buffer (Skrzypiec-Spring M et al., (2007) J. Pharmacol Toxicol Methods 55: 113-126). The pressure of the solution causes the aortic valve to shut and the perfusate is then forced into the ostium and the coronary vessels. This allows the heart to beat for several h. A balloon was inserted into the left ventricle (LV) to measure dP/dtmax (derivative of left ventricular pressure) as an index of cardiac contractility. The APJ agonist was perfused constantly in a dose dependent manner into the heart to examine cardiac contractility.
Example 49.0 was infused at different concentrations and load independent contractility was measured by index of LV dP/dtmax and the results are expressed as a percent change over vehicle. […] Example 49.0 was infused at different concentrations and load independent lusitropic effect (relaxation) was measured by index of LV dP/dtmin where results are expressed as percent change over vehicle. […] Example 60.0 was infused at different concentrations and load independent contractility was measured by index of LV dP/dtmax and the results are expressed as a percent change over vehicle. […] Example 60.0 was infused at different concentrations and load independent lusitropic effect (relaxation) was measured by index of LV dP/dtmin where results are expressed as percent change over vehicle.

human APJ receptor, sequence (P35414 whole entry): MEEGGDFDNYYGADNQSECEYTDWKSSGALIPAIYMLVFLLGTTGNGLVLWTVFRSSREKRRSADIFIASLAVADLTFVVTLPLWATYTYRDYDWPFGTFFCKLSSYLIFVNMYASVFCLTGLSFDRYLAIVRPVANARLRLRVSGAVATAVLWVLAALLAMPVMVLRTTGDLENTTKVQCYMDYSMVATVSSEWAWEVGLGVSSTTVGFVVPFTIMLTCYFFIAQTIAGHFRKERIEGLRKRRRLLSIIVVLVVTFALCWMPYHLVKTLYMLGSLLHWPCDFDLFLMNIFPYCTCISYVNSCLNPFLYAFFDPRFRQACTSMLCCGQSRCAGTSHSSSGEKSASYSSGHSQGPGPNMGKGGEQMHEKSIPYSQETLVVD

For the molecule `COc1cccc(OC)c1-n1c(NS(=O)(=O)[C@@H](C)[C@H](C)c2ncc(Cl)cn2)nnc1[C@@H]1COCCO1` (single isomer, unassigned) [Example 40.0, (2S,3R)-3-(5-chloro-2-pyrimidinyl)-N-(4-(2,6-dimethoxyphenyl)-5-((2R)-1,4-dioxan-2-yl)-4H-1,2,4-triazol-3-yl)-2-butanesulfonamide or (2S,3R)-3-(5-chloro-2-pyrimidinyl)-N-(4-(2,6-dimethoxyphenyl)-5-((2S)-1,4-dioxan-2-yl)-4H-1,2,4-triazol-3-yl)-2-butanesulfonamide], the EC50 on human APJ receptor worked out at 14 nM. In test [1], the “Isolated Heart Assay dP/dtmax (%)” value is “No effect” and the “Isolated Heart Assay dP/dtmin (%)” value is recorded as “No effect”.

For the molecule `COc1cccc(OC)c1-n1c(NS(=O)(=O)[C@@H](C)[C@H](C)c2ncc(Cl)cn2)nnc1[C@H]1CCCO1` (single isomer, unassigned) [Example 47.0, (2S,3R)-3-(5-chloro-2-pyrimidinyl)-N-(4-(2,6-dimethoxyphenyl)-5-((2S)-tetrahydro-2-furanyl)-4H-1,2,4-triazol-3-yl)-2-butanesulfonamide or (2S,3R)-3-(5-chloro-2-pyrimidinyl)-N-(4-(2,6-dimethoxyphenyl)-5-((2R)-tetrahydro-2-furanyl)-4H-1,2,4-triazol-3-yl)-2-butanesulfonamide], at human APJ receptor, the EC50 is 0.72 nM. In addition, in test [1], the “Isolated Heart Assay dP/dtmax (%)” value is 6.5% and the “Isolated Heart Assay dP/dtmin (%)” value is 1.0%.

`COc1cccc(OC)c1-n1c(NS(=O)(=O)[C@@H](C)[C@H](C)c2ncc(C)cn2)nnc1[C@H]1CCCO1` (single isomer, unassigned) [Example 50.0, (2S,3R)-N-(4-(2,6-dimethoxyphenyl)-5-((S)-tetrahydrofuran-2-yl)-4H-1,2,4-triazol-3-yl)-3-(5-methylpyrimidin-2-yl)butane-2-sulfonamide or (2S,3R)-N-(4-(2,6-dimethoxyphenyl)-5-((R)-tetrahydrofuran-2-yl)-4H-1,2,4-triazol-3-yl)-3-(5-methylpyrimidin-2-yl)butane-2-sulfonamide]: the EC50 on human APJ receptor came out at 28 nM. Moreover, in test [1], the “Isolated Heart Assay dP/dtmax (%)” value was 2.0% and the “Isolated Heart Assay dP/dtmin (%)” value is on record as “No effect”.

Take `COc1cccc(OC)c1-n1c(NS(=O)(=O)[C@@H](C)[C@H](OC)c2ncc(Cl)cn2)nnc1[C@H]1CCCO1` (single isomer, unassigned) [Example 51.0, (1R,2S)-1-(5-chloropyrimidin-2-yl)-N-(4-(2,6-dimethoxyphenyl)-5-((R)-tetrahydrofuran-2-yl)-4H-1,2,4-triazol-3-yl)-1-methoxypropane-2-sulfonamide or (1R,2S)-1-(5-chloropyrimidin-2-yl)-N-(4-(2,6-dimethoxyphenyl)-5-((S)-tetrahydrofuran-2-yl)-4H-1,2,4-triazol-3-yl)-1-methoxypropane-2-sulfonamide]: the EC50 on human APJ receptor was determined as 0.59 nM. In test [1], the “Isolated Heart Assay dP/dtmax (%)” value is given as “No effect” and the “Isolated Heart Assay dP/dtmin (%)” value is listed as “No effect”.

`COc1cccc(OC)c1-n1c(NS(=O)(=O)[C@@H](C)[C@H](C)c2ncc(Cl)cn2)nnc1[C@H]1CCCO1` (single isomer, unassigned) [Example 53.0, (2S,3R)-3-(5-chloro-2-pyrimidinyl)-N-(4-(2,6-dimethoxyphenyl)-5-((2S)-tetrahydro-2-furanyl)-4H-1,2,4-triazol-3-yl)-2-butanesulfonamide or (2S,3R)-3-(5-chloro-2-pyrimidinyl)-N-(4-(2,6-dimethoxyphenyl)-5-((2R)-tetrahydro-2-furanyl)-4H-1,2,4-triazol-3-yl)-2-butanesulfonamide]: the EC50 at human APJ receptor was found to be 13 nM. For the same molecule, in test [1], the “Isolated Heart Assay dP/dtmax (%)” value came out at 14.0% and the “Isolated Heart Assay dP/dtmin (%)” value was determined as 12.4%.

Regarding `COc1cccc(OC)c1-n1c(NS(=O)(=O)[C@@H](C)[C@H](OC)c2ncc(Cl)cn2)nnc1[C@H]1CCOC1` (single isomer, unassigned) [Example 56.0, (1R,2S)-1-(5-chloropyrimidin-2-yl)-N-(4-(2,6-dimethoxyphenyl)-5-((R)-tetrahydrofuran-3-yl)-4H-1,2,4-triazol-3-yl)-1-methoxypropane-2-sulfonamide or (1R,2S)-1-(5-chloropyrimidin-2-yl)-N-(4-(2,6-dimethoxyphenyl)-5-((S)-tetrahydrofuran-3-yl)-4H-1,2,4-triazol-3-yl)-1-methoxypropane-2-sulfonamide], the EC50 on human APJ receptor worked out at 19 nM. Further, in test [1], the “Isolated Heart Assay dP/dtmax (%)” value stood at 6.8% and the “Isolated Heart Assay dP/dtmin (%)” value turned out to be 7.1%.

As to `COc1cccc(OC)c1-n1c(NS(=O)(=O)[C@@H](C)[C@H](OC)c2ncc(Cl)cn2)nnc1[C@H]1CCOC1` (single isomer, unassigned) [Example 57.0, (1R,2S)-1-(5-chloropyrimidin-2-yl)-N-(4-(2,6-dimethoxyphenyl)-5-((R)-tetrahydrofuran-3-yl)-4H-1,2,4-triazol-3-yl)-1-methoxypropane-2-sulfonamide or (1R,2S)-1-(5-chloropyrimidin-2-yl)-N-(4-(2,6-dimethoxyphenyl)-5-((S)-tetrahydrofuran-3-yl)-4H-1,2,4-triazol-3-yl)-1-methoxypropane-2-sulfonamide], on human APJ receptor, the EC50 was 21 nM. Besides, in test [1], the “Isolated Heart Assay dP/dtmax (%)” value is reported as “No effect” and the “Isolated Heart Assay dP/dtmin (%)” value is recorded as “No effect”.

For the molecule `COc1cccc(OC)c1-n1c(NS(=O)(=O)[C@@H](C)[C@H](C)c2ncc(Cl)cn2)nnc1[C@H]1CCOC1` (single isomer, unassigned) [Example 61.0, (2S,3R)-3-(5-chloropyrimidin-2-yl)-N-(4-(2,6-dimethoxyphenyl)-5-((R)-tetrahydrofuran-3-yl)-4H-1,2,4-triazol-3-yl)butane-2-sulfonamide or (2S,3R)-3-(5-chloropyrimidin-2-yl)-N-(4-(2,6-dimethoxyphenyl)-5-((S)-tetrahydrofuran-3-yl)-4H-1,2,4-triazol-3-yl)butane-2-sulfonamide], the concentration for a half-maximal effect (EC50) on human APJ receptor came to 29 nM. Moreover, in test [1], the “Isolated Heart Assay dP/dtmax (%)” value was found to be 3.0% and the “Isolated Heart Assay dP/dtmin (%)” value is “No effect”.

As to `COc1cccc(OC)c1-n1c(NS(=O)(=O)[C@@H](C)[C@H](C)c2ncc(Cl)cn2)nnc1[C@H]1CCCOC1` (single isomer, unassigned) [Example 63.0, (2S,3R)-3-(5-chloropyrimidin-2-yl)-N-(4-(2,6-dimethoxyphenyl)-5-((R)-tetrahydro-2H-pyran-3-yl)-4H-1,2,4-triazol-3-yl)butane-2-sulfonamide or (2S,3R)-3-(5-chloropyrimidin-2-yl)-N-(4-(2,6-dimethoxyphenyl)-5-((S)-tetrahydro-2H-pyran-3-yl)-4H-1,2,4-triazol-3-yl)butane-2-sulfonamide], the EC50 at human APJ receptor came out at 1.5 nM. Besides, in test [1], the “Isolated Heart Assay dP/dtmax (%)” value is listed as 14.0% and the “Isolated Heart Assay dP/dtmin (%)” value is 11.0%.

For `COc1cccc(OC)c1-n1c(NS(=O)(=O)[C@@H](C)[C@H](OC)c2ncc(Cl)cn2)nnc1[C@H]1CCCOC1` (single isomer, unassigned) [Example 65.0, (1R,2S)-1-(5-chloropyrimidin-2-yl)-N-(4-(2,6-dimethoxyphenyl)-5-((R)-tetrahydro-2H-pyran-3-yl)-4H-1,2,4-triazol-3-yl)-1-methoxypropane-2-sulfonamide or (1R,2S)-1-(5-chloropyrimidin-2-yl)-N-(4-(2,6-dimethoxyphenyl)-5-((S)-tetrahydro-2H-pyran-3-yl)-4H-1,2,4-triazol-3-yl)-1-methoxypropane-2-sulfonamide], the EC50 at human APJ receptor was found to be 2.9 nM. In addition, in test [1], the “Isolated Heart Assay dP/dtmax (%)” value is recorded as 6.0% and the “Isolated Heart Assay dP/dtmin (%)” value is “No effect”.

For the molecule `COc1cccc(OC)c1-n1c(NS(=O)(=O)[C@@H](C)[C@H](C)c2ncc(C)cn2)nnc1[C@H]1OCC[C@H]1C` (single isomer, unassigned) [Example 72.0, (2S,3R)-N-(4-(2,6-dimethoxyphenyl)-5-((2R,3S)-3-methyltetrahydrofuran-2-yl)-4H-1,2,4-triazol-3-yl)-3-(5-methylpyrimidin-2-yl)butane-2-sulfonamide or (2S,3R)-N-(4-(2,6-dimethoxyphenyl)-5-((2S,3R)-3-methyltetrahydrofuran-2-yl)-4H-1,2,4-triazol-3-yl)-3-(5-methylpyrimidin-2-yl)butane-2-sulfonamide], on human APJ receptor, the EC50 is 6.8 nM. Besides, in test [1], the “Isolated Heart Assay dP/dtmax (%)” value came out at 5.9% and the “Isolated Heart Assay dP/dtmin (%)” value was 2.5%.

The EC50 is the concentration that produces a half-maximal response.
